Experimental data as given in the OPERA property sets (Mansouri et al. 2018).

Row | logP | SMILES
1 | 3 | Nc1ccc(N)c2c1C(=O)c1ccccc1C2=O
2 | 4.3 | Cc1cc(N(CCO)CCO)ccc1N=Nc1ccc([N+](=O)[O-])cc1Cl
3 | 3.5 | COc1cc(N)c2c(c1N)C(=O)c1ccccc1C2=O
4 | 5 | O=C1c2ccccc2C(=O)C1c1nc2ccccc2cc1O
5 | 4.3 | CCN(CCO)c1ccc(N=Nc2ccc([N+](=O)[O-])cc2)cc1
6 | 5.4 | C=CCN(CCC#N)c1cc(NC(C)=O)c(N=Nc2c(Br)cc([N+](=O)[O-])cc2[N+](=O)[O-])cc1OC
7 | 3.4 | CCn1c(O)c(N=Nc2ccc(Cl)cc2[N+](=O)[O-])c(C)c(C#N)c1=O
8 | 4.8 | COc1cc(N=Nc2c(Br)cc([N+](=O)[O-])cc2[N+](=O)[O-])c(NC(C)=O)cc1N(CCOC(C)=O)CCOC(C)=O
9 | 4.6 | O=[N+]([O-])c1cc(S(=O)(=O)Nc2ccccc2)ccc1Nc1ccccc1
10 | 4.1 | CNc1cccc2c1C(=O)c1ccccc1C2=O
11 | 4 | N#CCCN(CCO)c1ccc(N=Nc2ccc([N+](=O)[O-])cc2Cl)cc1
12 | 4.1 | O=C1c2ccccc2C(=O)C1c1ccc2ccccc2n1
